In general, ED50 refers to the dose at which the effect has come halfway, by size or by number of responders.

This is an account of results in patent US11660275B2, “Epilepsy treatment agent” (Eisai R&D Management Co., Ltd., priority 2018, dated 2023).

Test [1] has as its system mouse sound-induced convulsion model. The test is described as follows: Mouse sound-induced convulsion model (tonic convulsion, hindlimb extension). Type of test: in vivo. The settings on record: 0.5 h, DBA/2 JJcl mice, oral, sound stimulation 30 minutes after administration, % Tonic convulsion, regression analysis. As to the method: A mouse sound-induced convulsion model test was carried out to confirm the suppressive effect on convulsions. Tonic convulsion induced by sound stimulation is used as the index for evaluation in this model (European Journal of Pharmacology, 222, p 193-203(1992)).
Three-week-old male DBA/2 JJcl mice (Clea Japan, Inc.) were provided for the test (n=5 for each treatment, total 2 times). Tonic convulsion induced by sound stimulation was used as the indicator for evaluation (see aforementioned publication).
Compound (Ia) and/or compound (11) was dissolved in a 0.4% methyl cellulose/5% cremophor/5% IN hydrochloric acid/10% dimethyl sulfoxide solution for an administered dose of 20 mL/kg each to prepare samples which were orally administered. A mixed solution without the compound (vehicle) was used as a negative control. Sound stimulation (11 kHz, 115 dB, duration: 30 sec) was carried out 30 minutes after administration of the samples, to induce convulsions. Immediately after cessation of the sound stimulation, tonic convulsion was evaluated by observing the presence or absence of hindlimb extension. […]

The test system of another test is mouse kindling models. The settings on record: PTL 1; cited from earlier work.

Regarding `N#Cc1ccccc1-c1cc(-c2ccccn2)cn(-c2ccccc2)c1=O` [compound (II), 3-(2-cyanophenyl)-5-(2-pyridyl)-1-phenyl-1,2-dihydropyridin-2-one, reference compound], in test [1], the 50% effective dose (ED50) was found to be 0.33 mg/kg.

Regarding `NS(=O)(=O)N[C@H]1c2c(F)cc(F)cc2CC1(F)F` [compound (Ia), N-[(1S)-2,2,5,7-tetrafluoro-2,3-dihydro-1H-inden-1-yl]sulfamide], the ED50 in test [1] was 53 mg/kg. The “effect on seizure severity (score)” value with mouse kindling models was “ameliorating effect”.

As for `NS(=O)(=O)N[C@H]1c2c(F)ccc(F)c2CC1(F)F` [compound (Ib), N-[(1S)-2,2,4,7-tetrafluoro-2,3-dihydro-1H-inden-1-yl]sulfamide], the “effect on seizure severity (score)” value with mouse kindling models is “ameliorating effect”.

In the case of `NS(=O)(=O)N[C@H]1c2c(F)c(F)cc(F)c2CC1(F)F` [compound (Ic), (+)-N-(2,2,4,6,7-pentafluoro-2,3-dihydro-1H-inden-1-yl)sulfamide], in the test on mouse kindling models, the “effect on seizure severity (score)” value is reported as “ameliorating effect”.
